Test results as given in ChEMBL document CHEMBL4879554, “Data for DCP probe GNE-2256” (2021).
Active and inactive are the calls of the source. The calls are words filed in the database; no cut-off is given here.

Columns and labels:
[1] = R848-induced IL-6 production in human whole blood; assay type: tissue-based
[2] = molecular target: Mitogen-activated protein kinase kinase kinase 5 (Homo sapiens) (UniProt Q99683); assay: ASK1 Kinase panel; details: Compound concentration 1.0 uM
[3] = molecular target: Aurora kinase A (Homo sapiens) (UniProt O14965); assay: Aurora_A Kinase panel; details: Compound concentration 1.0 uM
[4] = molecular target: Bone morphogenetic protein receptor type-1A (Homo sapiens) (UniProt P36894); assay: BMPR1A Kinase panel; details: Compound concentration 1.0 uM
[5] = molecular target: Serine/threonine-protein kinase BRSK1 (Homo sapiens) (UniProt Q8TDC3); assay: BrSK1 Kinase panel; details: Compound concentration 1.0 uM
[6] = molecular target: Calcium/calmodulin-dependent protein kinase kinase 1 (Homo sapiens) (UniProt Q8N5S9); assay: CAMKK1 Kinase panel; details: Compound concentration 1.0 uM
[7] = molecular target: Cyclin-dependent kinase 7/ cyclin H (Homo sapiens) (UniProt P51946+P50613); assay: CDK7/cyclinH Kinase panel; assay type: protein-complex assay; details: Compound concentration 1.0 uM
[8] = molecular target: Serine/threonine-protein kinase Chk1 (Homo sapiens) (UniProt O14757); assay: CHK1 Kinase panel; details: Compound concentration 1.0 uM
[9] = molecular target: Casein kinase I isoform epsilon (Homo sapiens) (UniProt P49674); assay: CK1_epsilon1 Kinase panel; details: Compound concentration 1.0 uM
[10] = molecular target: Casein kinase I isoform gamma-1 (Homo sapiens) (UniProt Q9HCP0); assay: CK1_gamma1 Kinase panel; details: Compound concentration 1.0 uM
[11] = molecular target: Calcium/calmodulin-dependent protein kinase type II subunit beta (Homo sapiens) (UniProt Q13554); assay: CaMKII_beta Kinase panel; details: Compound concentration 1.0 uM
[12] = molecular target: Mitogen-activated protein kinase 1 (Homo sapiens) (UniProt P28482); assay: ERK2 Kinase panel; details: Compound concentration 1.0 uM
[13] = molecular target: Ephrin type-B receptor 3 (Homo sapiens) (UniProt P54753); assay: EphB3 Kinase panel; details: Compound concentration 1.0 uM
[14] = molecular target: Receptor tyrosine-protein kinase erbB-4 (Homo sapiens) (UniProt Q15303); assay: ErbB4 Kinase panel; details: Compound concentration 1.0 uM
[15] = molecular target: Tyrosine-protein kinase Fgr (Homo sapiens) (UniProt P09769); assay: Fgr Kinase panel; details: Compound concentration 1.0 uM
[16] = molecular target: Vascular endothelial growth factor receptor 3 (Homo sapiens) (UniProt P35916); assay: Flt4 Kinase panel; details: Compound concentration 1.0 uM
[17] = molecular target: G protein-coupled receptor kinase 3 (Homo sapiens) (UniProt P35626); assay: GRK3 Kinase panel; details: Compound concentration 1.0 uM
[18] = molecular target: Glycogen synthase kinase-3 alpha (Homo sapiens) (UniProt P49840); assay: GSK3_alpha Kinase panel; details: Compound concentration 1.0 uM
[19] = molecular target: Glycogen synthase kinase-3 beta (Homo sapiens) (UniProt P49841); assay: GSK3_beta Kinase panel; details: Compound concentration 1.0 uM
[20] = molecular target: Inhibitor of nuclear factor kappa-B kinase subunit alpha (Homo sapiens) (UniProt O15111); assay: IKK_alpha Kinase panel; details: Compound concentration 1.0 uM
[21] = molecular target: Inhibitor of nuclear factor kappa-B kinase subunit beta (Homo sapiens) (UniProt O14920); assay: IKK_beta Kinase panel; details: Compound concentration 1.0 uM
[22] = molecular target: Inhibitor of nuclear factor kappa-B kinase subunit epsilon (Homo sapiens) (UniProt Q14164); assay: IKK_epsilon Kinase panel; details: Compound concentration 1.0 uM
[23] = molecular target: Tyrosine-protein kinase JAK3 (Homo sapiens) (UniProt P52333); assay: JAK3 Kinase panel; details: Compound concentration 1.0 uM
[24] = molecular target: Mitogen-activated protein kinase 8 (Homo sapiens) (UniProt P45983); assay: JNK1_alpha1 Kinase panel; details: Compound concentration 1.0 uM
[25] = molecular target: Serine/threonine-protein kinase MARK1 (Homo sapiens) (UniProt Q9P0L2); assay: MARK1 Kinase panel; details: Compound concentration 1.0 uM
[26] = molecular target: MAP/microtubule affinity-regulating kinase 3 (Homo sapiens) (UniProt P27448); assay: MARK3 Kinase panel; details: Compound concentration 1.0 uM
[27] = molecular target: Dual specificity mitogen-activated protein kinase kinase 1 (Homo sapiens) (UniProt Q02750); assay: MEK1 Kinase panel; details: Compound concentration 1.0 uM
[28] = molecular target: Ribosomal protein S6 kinase alpha-5 (Homo sapiens) (UniProt O75582); assay: MSK1 Kinase panel; details: Compound concentration 1.0 uM
[29] = molecular target: Serine/threonine-protein kinase 4 (Homo sapiens) (UniProt Q13043); assay: MST1 Kinase panel; details: Compound concentration 1.0 uM
[30] = molecular target: Tyrosine-protein kinase Mer (Homo sapiens) (UniProt Q12866); assay: Mer Kinase panel; details: Compound concentration 1.0 uM
[31] = molecular target: Hepatocyte growth factor receptor (Homo sapiens) (UniProt P08581); assay: Met Kinase panel; details: Compound concentration 1.0 uM
[32] = molecular target: Muscle, skeletal receptor tyrosine-protein kinase (Homo sapiens) (UniProt O15146); assay: MuSK Kinase panel; details: Compound concentration 1.0 uM
[33] = molecular target: Serine/threonine-protein kinase Nek6 (Homo sapiens) (UniProt Q9HC98); assay: NEK6 Kinase panel; details: Compound concentration 1.0 uM
[34] = molecular target: Serine/threonine-protein kinase NLK (Homo sapiens) (UniProt Q9UBE8); assay: NLK Kinase panel; details: Compound concentration 1.0 uM
[35] = molecular target: Serine/threonine-protein kinase PAK 6 (Homo sapiens) (UniProt Q9NQU5); assay: PAK6 Kinase panel; details: Compound concentration 1.0 uM
[36] = molecular target: Serine/threonine-protein kinase D1 (Homo sapiens) (UniProt Q15139); assay: PKD1 Kinase panel; details: Compound concentration 1.0 uM
[37] = molecular target: Serine/threonine-protein kinase PLK1 (Homo sapiens) (UniProt P53350); assay: PLK1 Kinase panel; details: Compound concentration 1.0 uM
[38] = test system: RAF proto-oncogene serine/threonine-protein kinase (Homo sapiens), P04049 [Y340D,Y341D]; assay: RAF1(Y340D,Y3\n41D) Kinase panel; details: Compound concentration 1.0 uM
[39] = molecular target: Rho-associated protein kinase 1 (Homo sapiens) (UniProt Q13464); assay: ROCK1 Kinase panel; details: Compound concentration 1.0 uM
[40] = molecular target: Ribosomal protein S6 kinase alpha-2 (Homo sapiens) (UniProt Q15349); assay: RSK3 Kinase panel; details: Compound concentration 1.0 uM
Homo sapiens = organism: Homo sapiens; assay: (§1) TAO1 Kinase panel; details: Compound concentration 1.0 uM
[41] = molecular target: Serine/threonine-protein kinase TAO1 (Homo sapiens) (UniProt Q7L7X3); assay: as §1; details: Compound concentration 1.0 uM
[42] = molecular target: Serine/threonine-protein kinase TBK1 (Homo sapiens) (UniProt Q9UHD2); assay: TBK1 Kinase panel; details: Compound concentration 1.0 uM
[43] = molecular target: BDNF/NT-3 growth factors receptor (Homo sapiens) (UniProt Q16620); assay: TrkB Kinase panel; details: Compound concentration 1.0 uM
[44] = molecular target: Wee1-like protein kinase (Homo sapiens) (UniProt P30291); assay: WEE1 Kinase panel; details: Compound concentration 1.0 uM
[45] = molecular target: Tyrosine-protein kinase Yes (Homo sapiens) (UniProt P07947); assay: Yes Kinase panel; details: Compound concentration 1.0 uM
[46] = molecular target: Eukaryotic elongation factor 2 kinase (Homo sapiens) (UniProt O00418); assay: eEF_2K Kinase panel; details: Compound concentration 1.0 uM
[47] = molecular target: Serine/threonine-protein kinase mTOR (Homo sapiens) (UniProt P42345); assay: mTOR Kinase panel; details: Compound concentration 1.0 uM
[48] = molecular target: 5-hydroxytryptamine receptor 2B (Homo sapiens, UniProt P41595); details: Compound concentration 10.0 uM
[49] = molecular target: 5-hydroxytryptamine receptor 5A (Homo sapiens) (UniProt P47898); details: Compound concentration 10.0 uM
[50] = molecular target: Kappa-type opioid receptor (Homo sapiens) (UniProt P41145); details: Compound concentration 10.0 uM
[51] = molecular target: Histamine H3 receptor (Homo sapiens) (UniProt Q9Y5N1); details: Compound concentration 10.0 uM
[52] = molecular target: Alpha-1B adrenergic receptor (Homo sapiens) (UniProt P35368); details: Compound concentration 10.0 uM
[53] = molecular target: Alpha-2B adrenergic receptor (Homo sapiens) (UniProt P18089); details: Compound concentration 10.0 uM
[54] = molecular target: Muscarinic acetylcholine receptor M1 (Homo sapiens) (UniProt P11229); details: Compound concentration 10.0 uM
Chain of Muscarinic acetylcholine receptor M1 (Homo sapiens) (P11229 whole entry): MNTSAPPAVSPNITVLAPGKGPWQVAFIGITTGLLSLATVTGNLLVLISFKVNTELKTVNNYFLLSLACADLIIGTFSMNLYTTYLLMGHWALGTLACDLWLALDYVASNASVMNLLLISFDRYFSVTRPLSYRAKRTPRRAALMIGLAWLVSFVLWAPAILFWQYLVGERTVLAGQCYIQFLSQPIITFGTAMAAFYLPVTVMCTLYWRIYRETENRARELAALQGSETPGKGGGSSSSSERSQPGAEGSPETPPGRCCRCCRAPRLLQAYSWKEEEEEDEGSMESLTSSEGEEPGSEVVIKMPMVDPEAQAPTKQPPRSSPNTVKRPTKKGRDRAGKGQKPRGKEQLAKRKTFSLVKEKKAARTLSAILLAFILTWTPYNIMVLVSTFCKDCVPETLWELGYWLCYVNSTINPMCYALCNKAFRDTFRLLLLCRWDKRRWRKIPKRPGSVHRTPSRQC

Chain of Serine/threonine-protein kinase 4 (Homo sapiens) (Q13043 whole entry): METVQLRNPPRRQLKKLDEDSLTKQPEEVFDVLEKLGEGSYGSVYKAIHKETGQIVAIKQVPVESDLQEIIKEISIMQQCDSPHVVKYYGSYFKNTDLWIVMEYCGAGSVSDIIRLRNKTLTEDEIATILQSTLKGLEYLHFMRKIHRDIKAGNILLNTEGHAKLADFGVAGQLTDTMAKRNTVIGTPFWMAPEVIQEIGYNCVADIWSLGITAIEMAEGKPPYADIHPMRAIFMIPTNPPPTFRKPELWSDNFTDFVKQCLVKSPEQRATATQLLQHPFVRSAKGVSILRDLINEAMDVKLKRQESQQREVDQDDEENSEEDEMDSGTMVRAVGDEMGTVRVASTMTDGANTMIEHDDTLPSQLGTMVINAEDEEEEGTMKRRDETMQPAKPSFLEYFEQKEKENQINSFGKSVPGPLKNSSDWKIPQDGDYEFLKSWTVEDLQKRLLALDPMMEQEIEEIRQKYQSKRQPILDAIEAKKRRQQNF
Chain of G protein-coupled receptor kinase 3 (Homo sapiens) (P35626 whole entry): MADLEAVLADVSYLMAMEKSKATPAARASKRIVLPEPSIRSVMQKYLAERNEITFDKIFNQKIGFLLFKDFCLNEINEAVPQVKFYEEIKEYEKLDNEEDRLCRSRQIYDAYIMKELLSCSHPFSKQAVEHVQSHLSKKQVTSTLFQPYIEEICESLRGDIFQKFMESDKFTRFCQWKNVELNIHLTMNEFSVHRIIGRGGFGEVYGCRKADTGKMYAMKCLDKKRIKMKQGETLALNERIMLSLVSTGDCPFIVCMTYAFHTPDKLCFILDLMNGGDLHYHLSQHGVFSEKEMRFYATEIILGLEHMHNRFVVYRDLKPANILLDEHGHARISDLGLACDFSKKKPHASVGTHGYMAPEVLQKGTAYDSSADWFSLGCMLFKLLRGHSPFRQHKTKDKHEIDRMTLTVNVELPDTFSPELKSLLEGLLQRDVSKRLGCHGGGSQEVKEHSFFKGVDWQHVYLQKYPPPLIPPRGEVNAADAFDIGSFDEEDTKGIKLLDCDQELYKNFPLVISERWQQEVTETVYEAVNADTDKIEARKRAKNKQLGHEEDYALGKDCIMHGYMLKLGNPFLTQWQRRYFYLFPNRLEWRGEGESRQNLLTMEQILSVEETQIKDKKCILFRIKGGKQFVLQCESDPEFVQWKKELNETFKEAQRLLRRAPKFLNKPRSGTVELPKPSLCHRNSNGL
Chain of Alpha-1B adrenergic receptor (Homo sapiens) (P35368 whole entry): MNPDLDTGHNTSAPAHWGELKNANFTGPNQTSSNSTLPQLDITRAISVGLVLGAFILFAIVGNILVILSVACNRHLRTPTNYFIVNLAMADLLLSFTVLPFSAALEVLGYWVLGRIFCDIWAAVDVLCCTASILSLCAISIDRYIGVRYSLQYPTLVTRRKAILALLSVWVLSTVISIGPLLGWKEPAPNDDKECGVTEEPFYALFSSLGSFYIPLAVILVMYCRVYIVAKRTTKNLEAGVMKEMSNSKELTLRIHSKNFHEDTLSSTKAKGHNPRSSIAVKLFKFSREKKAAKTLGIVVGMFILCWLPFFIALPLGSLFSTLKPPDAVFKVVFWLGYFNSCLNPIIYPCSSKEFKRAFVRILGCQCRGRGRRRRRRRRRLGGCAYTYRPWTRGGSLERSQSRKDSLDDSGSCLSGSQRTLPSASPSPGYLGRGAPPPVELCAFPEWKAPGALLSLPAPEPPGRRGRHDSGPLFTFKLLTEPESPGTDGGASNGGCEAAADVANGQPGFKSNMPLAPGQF
Chain of Rho-associated protein kinase 1 (Homo sapiens) (Q13464 2-1354 limits assumed): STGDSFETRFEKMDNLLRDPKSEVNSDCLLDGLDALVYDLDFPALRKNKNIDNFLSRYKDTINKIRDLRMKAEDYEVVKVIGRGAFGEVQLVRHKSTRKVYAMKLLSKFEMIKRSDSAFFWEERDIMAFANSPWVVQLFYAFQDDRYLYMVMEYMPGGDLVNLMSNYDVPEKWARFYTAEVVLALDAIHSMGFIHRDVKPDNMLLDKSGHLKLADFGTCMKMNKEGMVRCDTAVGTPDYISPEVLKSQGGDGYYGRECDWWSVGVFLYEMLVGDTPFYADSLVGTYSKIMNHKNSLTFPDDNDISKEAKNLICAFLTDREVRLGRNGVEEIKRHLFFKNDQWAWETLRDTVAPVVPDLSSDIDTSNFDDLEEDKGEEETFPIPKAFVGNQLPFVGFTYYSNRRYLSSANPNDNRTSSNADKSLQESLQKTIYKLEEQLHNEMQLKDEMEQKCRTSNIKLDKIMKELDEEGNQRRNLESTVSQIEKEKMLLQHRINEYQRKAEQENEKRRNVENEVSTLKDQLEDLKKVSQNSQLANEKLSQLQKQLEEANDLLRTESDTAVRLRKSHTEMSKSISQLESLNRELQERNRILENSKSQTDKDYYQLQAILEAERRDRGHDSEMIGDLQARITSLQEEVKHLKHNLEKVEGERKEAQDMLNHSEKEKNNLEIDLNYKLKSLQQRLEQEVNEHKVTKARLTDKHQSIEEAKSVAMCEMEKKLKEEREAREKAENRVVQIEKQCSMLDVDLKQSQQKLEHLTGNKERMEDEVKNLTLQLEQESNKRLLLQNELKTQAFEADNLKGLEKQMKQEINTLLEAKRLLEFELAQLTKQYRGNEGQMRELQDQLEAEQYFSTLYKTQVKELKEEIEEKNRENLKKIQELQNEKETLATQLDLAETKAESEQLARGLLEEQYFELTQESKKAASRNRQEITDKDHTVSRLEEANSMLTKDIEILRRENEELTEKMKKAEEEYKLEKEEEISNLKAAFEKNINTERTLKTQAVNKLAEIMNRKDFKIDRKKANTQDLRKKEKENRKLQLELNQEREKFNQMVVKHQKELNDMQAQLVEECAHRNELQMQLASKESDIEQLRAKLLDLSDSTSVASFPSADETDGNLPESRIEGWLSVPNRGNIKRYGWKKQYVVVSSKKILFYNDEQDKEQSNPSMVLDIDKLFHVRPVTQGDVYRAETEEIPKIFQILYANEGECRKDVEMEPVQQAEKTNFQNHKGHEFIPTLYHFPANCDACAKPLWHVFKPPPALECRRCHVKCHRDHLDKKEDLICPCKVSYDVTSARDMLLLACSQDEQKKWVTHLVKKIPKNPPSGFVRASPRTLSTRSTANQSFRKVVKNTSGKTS
Chain of Serine/threonine-protein kinase BRSK1 (Homo sapiens) (Q8TDC3 whole entry): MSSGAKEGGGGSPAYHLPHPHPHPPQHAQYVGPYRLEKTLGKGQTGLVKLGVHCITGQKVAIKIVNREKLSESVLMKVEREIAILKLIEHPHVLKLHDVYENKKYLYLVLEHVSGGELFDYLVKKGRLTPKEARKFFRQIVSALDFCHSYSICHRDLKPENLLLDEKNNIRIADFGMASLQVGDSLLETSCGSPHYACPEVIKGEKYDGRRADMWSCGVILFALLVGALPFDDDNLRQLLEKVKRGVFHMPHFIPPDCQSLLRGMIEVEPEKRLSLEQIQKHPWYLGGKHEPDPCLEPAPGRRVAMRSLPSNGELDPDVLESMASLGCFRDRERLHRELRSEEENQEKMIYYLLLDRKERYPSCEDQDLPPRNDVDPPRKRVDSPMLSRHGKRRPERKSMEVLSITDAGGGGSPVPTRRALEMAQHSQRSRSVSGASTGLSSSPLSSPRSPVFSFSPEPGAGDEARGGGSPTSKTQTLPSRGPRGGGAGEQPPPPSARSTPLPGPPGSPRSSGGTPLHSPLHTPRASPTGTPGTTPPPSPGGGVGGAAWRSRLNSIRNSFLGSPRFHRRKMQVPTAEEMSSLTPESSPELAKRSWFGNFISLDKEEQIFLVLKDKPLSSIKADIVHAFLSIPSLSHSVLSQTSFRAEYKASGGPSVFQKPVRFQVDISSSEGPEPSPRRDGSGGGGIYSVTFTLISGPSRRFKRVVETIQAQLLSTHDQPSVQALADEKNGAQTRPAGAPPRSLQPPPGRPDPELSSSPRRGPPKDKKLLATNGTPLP
Chain of 5-hydroxytryptamine receptor 2B (P41595 whole entry): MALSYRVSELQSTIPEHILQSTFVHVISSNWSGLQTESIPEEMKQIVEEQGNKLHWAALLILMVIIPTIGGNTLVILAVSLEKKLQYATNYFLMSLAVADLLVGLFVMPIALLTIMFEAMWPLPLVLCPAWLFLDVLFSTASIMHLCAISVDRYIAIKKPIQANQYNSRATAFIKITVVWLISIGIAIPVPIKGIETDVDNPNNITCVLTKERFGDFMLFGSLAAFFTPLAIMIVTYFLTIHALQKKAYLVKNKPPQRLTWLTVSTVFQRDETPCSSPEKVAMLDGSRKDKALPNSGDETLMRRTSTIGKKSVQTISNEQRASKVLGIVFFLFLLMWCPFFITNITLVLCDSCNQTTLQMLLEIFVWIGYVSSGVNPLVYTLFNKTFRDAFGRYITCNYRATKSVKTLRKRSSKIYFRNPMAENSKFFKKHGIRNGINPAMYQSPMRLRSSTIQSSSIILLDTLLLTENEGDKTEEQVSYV

In the case of `CC(C)(O)[C@H](F)CN1Cc2cc(NC(=O)c3cnn4cccnc34)c(N3CCOCC3)cc2C1=O`, the IC50 [1] is reported as 190 nM (active), the inhibition [2] is reported as 3.5% and the inhibition [3] is reported as 20.5%. It also gave an inhibition [4] of 7%, an inhibition [5] of 3% and an inhibition [6] of 3.5%. It also gave an inhibition [7] of 4%, an inhibition [8] of 3% and an inhibition [9] of 5.5%. For the same molecule, the inhibition [10] was -3.5%, the inhibition [11] was -5.5% and the inhibition [12] was 0.5%. For the same molecule, the inhibition [13] was -0%, the inhibition [14] was 5% and the inhibition [15] was 53%. For the same molecule, the inhibition [16] was 13%, the inhibition [17] was -1% and the inhibition [18] was 15.5%. The inhibition [19] was 7.8%, the inhibition [20] was 8.5% and the inhibition [21] was 1.5%. For the same molecule, the inhibition [22] was -0.5%, the inhibition [23] was 28% and the inhibition [24] was -1.5%. For the same molecule, the inhibition [25] was -1%, the inhibition [26] was 8.5% and the inhibition [27] was 20.5%. It also gave an inhibition [28] of -2%, an inhibition [29] of -1% and an inhibition [30] of 28%. It also gave an inhibition [31] of -2%, an inhibition [32] of 13% and an inhibition [33] of 7%. It also gave an inhibition [34] of 7%, an inhibition [35] of 7% and an inhibition [36] of 7.5%. The inhibition [37] was -2%, the inhibition [38] was -1.5% and the inhibition [39] was 5%. For the same molecule, the inhibition [40] was 9%, the inhibition (Homo sapiens) was 2% and the inhibition [41] was 2%. For the same molecule, the inhibition [42] was 5.5%, the inhibition [43] was 86% and the inhibition [44] was 5.5%. The inhibition [45] was 41.5%, the inhibition [46] was -0% and the inhibition [47] was -0%. The inhibition [48] was 84.1%, the inhibition [49] was -0.55% and the inhibition [50] was -0.13%. It also gave an inhibition [51] of -5.14%, an inhibition [52] of -5.24% and an inhibition [53] of -0.98%. It also gave an inhibition [54] of -9.03%.
